# Laboratory results published in PMC7023435 (Pharmaceutics, 2020).
# Tests used:
# [1] = in vivo; cited from earlier work
# Source text: For overcoming the absorption barrier, PEs have been developed and studied both for paracellular enhancement by tight junction opening and transcellular e ...
# Caco-2 cell monolayers = assay: In vitro insulin permeation and TEER across Caco-2 cell monolayers, PE:insulin in microcontainers or solution; format: in vitro ADME; conditions: Caco-2, apical to basolateral, 2 h, 37 °C, 75 rpm, hHBSS pH 7.4 with 0.05% BSA, PE:insulin 1:4 w/w, RP-HPLC UV 214 nm, n = 3 passages in triplicate
# Method: Cell culturing was done in DMEM supplemented with FBS (10%, v/v), L-glutamine (2 mM), penicillin (100 U/mL), streptomycin (100 µg/mL) and NEAA (1%, v/v) for 21–23 days at 37 °C and 5% CO2 with a final density of 1 × 10^5 cells/cm^2. […] The transepithelial electrical resistance (TEER) of the Caco-2 cell monolayers was measured upon equilibration to room temperature using an Epithelial Volt/Ohm Meter (World Precision Instruments, Sarasota, FL, USA) with Endohm™ chambers. First recording took place in culture medium prior to the permeation study; after which, the monolayers were washed twice with permeation buffer consisting of 10 mM HEPES in HBSS (hHBSS) supplied with BSA (0.05%, w/v), NaHCO3 (0.38%, w/v) and adjusted to pH 7.4. […] Each of the three different studies per PE was carried out in triplicates and across three passages with all studies conducted within eight passages. […] The MC chips were then removed from the Caco-2 cell monolayers, followed by washing twice with hHBSS before TEER was recorded again.
# In vitro permeation samples without proteolysis were separated on a Kinetex XB-C18 column (100 × 4.6 mm, 5 µm, 100 Å; Phenomenex, Torrance, CA, USA), with two mobile phases of A: 0.1% (v/v) TFA in water and B: 0.1% (v/v) TFA in acetonitrile. […]
# [2] = test system: porcine intestinal tissue; assay: Ex vivo intestinal permeation study in Franz diffusion cells; format: in vitro ADME, pig; conditions: Franz diffusion cell, hDMEM, 37 °C, 3 h, MC chip on mucosa, insulin by ELISA, n = 3
# Method: The jejunum and ileum were collected from an anaesthetized pig (approx. 40 kg) immediately before it was euthanized. […] Intestinal segments of 10–20 cm were prepared and stored at −20 °C until the day of the permeation study. Prior to the study, a segment was thawed in 10 mM HEPES-buffered DMEM (hDMEM) and longitudinally cut open. Luminal contents were washed away with hDMEM and the muscularis was removed using tweezers before the mucosa was cut into 4 × 4 cm pieces and placed in Franz diffusion cells. Each receptor compartment was filled with 7 mL of hDMEM facing the serosal side of the intestinal tissue. The donor side, facing the mucosa, was filled with 1.5 mL FD70 solution (100 µg/mL) in hDMEM to imitate the inclusion of a pathogen. Permeation was initiated by placing a chip of loaded MCs directly on top with the openings facing the mucosa.
# epithelial integrity = conditions: cited from earlier work
# Source text: The effect of local high PE concentrations on the monolayer under the opening of C10-releasing MCs has previously been visualized by laser-scanning confocal microscopy of cell monolayers cultured on Transwell® filters. Furthermore, we have previously shown that the monolayers, u ...
# [3] = target: α-chymotrypsin from bovine pancreas (Bos taurus, UniProt P00766); conditions: insulin 600 µg/mL, FaSSIF, 37 °C, RP-HPLC
# Method: The compatibility of integrating proteolysis in the in vitro permeation setup was then tested by measuring TEER and viability as the metabolic activity of Caco-2 cell monolayers after 2 h of apical exposure to different concentrations of α-chymotrypsin (0, 10, 50 and 100 µg/mL) in hHBSS. Viability was determined after washing the cells with fresh hHBSS followed by the apical addition of 1.5 mL freshly made MTS (240 µg/mL) and PMS solution (2.4 µg/mL) in hHBSS before incubation in dark conditions for 1.5 h with 75 rpm orbital shaking at 37 °C. The absorbance at 492 nm of three 100 µL samples from each well was measured in a 96-well plate using a Multiskan MS 352 Microplate Reader (Labsystems, Helsinki, Finland).
# [4] = oral dosage form of insulin using C10, high doses required; cited from earlier work
# [5] = test system: Caco-2 cell monolayers with apical α-chymotrypsin; assay: Combined in vitro permeation and proteolysis; conditions: absence of protease inhibition (insulin:SDS:MCC MCs), apical α-chymotrypsin 0.49 U/mL, 37 °C, RP-HPLC
# Method: Cell culturing was done in DMEM supplemented with FBS (10%, v/v), L-glutamine (2 mM), penicillin (100 U/mL), streptomycin (100 µg/mL) and NEAA (1%, v/v) for 21–23 days at 37 °C and 5% CO2 with a final density of 1 × 10^5 cells/cm^2. […] The transepithelial electrical resistance (TEER) of the Caco-2 cell monolayers was measured upon equilibration to room temperature using an Epithelial Volt/Ohm Meter (World Precision Instruments, Sarasota, FL, USA) with Endohm™ chambers. […] The MC chips were then removed from the Caco-2 cell monolayers, followed by washing twice with hHBSS before TEER was recorded again.
# The compatibility of integrating proteolysis in the in vitro permeation setup was then tested by measuring TEER and viability as the metabolic activity of Caco-2 cell monolayers after 2 h of apical exposure to different concentrations of α-chymotrypsin (0, 10, 50 and 100 µg/mL) in hHBSS. Viability was determined after washing the cells with fresh hHBSS followed by the apical addition of 1.5 mL freshly made MTS (240 µg/mL) and PMS solution (2.4 µg/mL) in hHBSS before incubation in dark conditions for 1.5 h with 75 rpm orbital shaking at 37 °C. The absorbance at 492 nm of three 100 µL samples from each well was measured in a 96-well plate using a Multiskan MS 352 Microplate Reader (Labsystems, Helsinki, Finland). […]
molecule,measurement,setting,value
semaglutide,oral bioavailability,[1],0.1–1.2%
"CCCCCCCCCCCCOS(=O)(=O)[O-].[Na+] [SDS, sodium dodecyl sulfate]",potency as PE based on the insulin permeation rates,Caco-2 cell monolayers,significantly more potent PE when compared to C10 and C12-carnitine
same,insulin permeation across porcine intestinal tissue,[2],significantly higher insulin permeation
same,barrier integrity after exposure,epithelial integrity; 2 h exposure to 0.40 mM SDS,irreversible deterioration of barrier integrity
same,SDS concentration resulting in immediate loss of epithelial integrity,epithelial integrity; concentrations as low as,0.40 mM
"CCCCCCCCCC(=O)[O-].[Na+] [C10, n-Capric acid sodium salt]",potency as PE based on the insulin permeation rates,Caco-2 cell monolayers,equal in vitro potency to C12-carnitine
same,concentration inducing in vitro permeation,epithelial integrity; in the order,~10 mM
insulin (human recombinant),native insulin remaining,"[3]; after 45–60 min, without STI, α-chymotrypsin 0.49 U/mL",approximately 20%
same,native insulin degraded after 2 h,"[3]; α-chymotrypsin 10 µg/mL (0.49 U/mL), 12 µg/mL STI, n = 3",more than 90%
same,glycemic control,[4],glycemic control similar to subcutaneously administered insulin
same,insulin digested on the apical side after 2 h,[5],Almost all
